Data published in patent US9399032B2, “Methods and compositions for treating degenerative and ischemic disorders” (The General Hospital Corporation, priority 2009, dated 2016).
Structures can show the parent of a compound that is named as a salt.

Columns and labels:
Glutaminase (GLS) = assay: Western detection of Glutaminase (GLS) protein; type: cell-based; conditions: Western blot
Description: To explore this hypothesis, activation of glycolysis via hypoxia inducible factor (HIF), a known transcriptional activator of glycolysis, was tested. HIF1-α and HIF2-α stabilization was assessed in HeLa cells by carrying out Western blot detection using anti-HIF1-α antibody (Cell Signaling Cat. No. 3716) and anti-HIF2-α antibody (Novus Biologicals). Protein was extracted from cells pre-treated with either 0.1% DMSO, 50 μM meclizine or 100 μM deferoxamine (Sigma Cat. No. D9533). Western detection of Glutaminase (GLS) was carried out on protein extracts from 293 cells using anti-GLS antibodies (gift from Dr. Javier Marquez, University of […], Spain).

GLS expressing 293 cells = assay: OCR in 293 cells with forced GLS expression; type: cell-based; conditions: 50 μM
Description: FIG. 14B presents exemplary data showing OCR measurements on FACS sorted control (LacZ) or GLS expressing cells following DMSO or 50 μM meclizine addition at time 0 min (n=4).
Glutaminase full length cDNA (Open Biosystems, Accession #BCO38507) was amplified using proof-reading TAQ polymerase (Accuprime, Invitrogen) with primers which included attb1 and attb2 sites for subsequent subcloning into pDONR 221 vector (Invitrogen). Partial Kozak sequence was included in the 5′ primer and stop codon was eliminated in the 3′ primer. The sequences of forward (F) and reverse primers (R) are—5′-GGGGACAAGTTTGTACAAAAAAGCAGGCTCCACCATGATGCGGCTGCGAGGCTC-3′ (SEQ ID NO: 2); and 5′-GGGGACCACTTTGTACAAGAAAGCTGGGTCCAACAATCCATCAAGATTCT-3′ (SEQ ID NO: 3), respectively. Resulting PCR fragment was cloned into Gateway entry vector pDONR 221 (Invitrogen) with BP clonase using STBL2 E. coli competent cells (Invitrogen). Subsequently, it was subcloned into destination vector pcDNA6.2-EMGFP-DEST with LR clonase and was sequenced verified. The 293 cells were transfected with the pcDNA6.2-GLS-GFP and the control vector pcDNA6.2-LacZ-GFP using Fugene (Roche) reagent. GLS expression was confirmed by Western blot using anti-GLS antibody. FACS sorted transfected cells were subjected to meclizine treatment followed by OCR and ECAR measurements.

## Cc1cccc(CN2CCN(C(c3ccccc3)c3ccc(Cl)cc3)CC2)c1 (racemic) [Meclizine, meclizine hydrochloride]
Glutaminase (GLS)
  GLS protein level: not reduced
GLS expressing 293 cells
  oxygen consumption with constitutive GLS expression: continued to suppress oxygen consumption
